In ChEMBL document CHEMBL3425501, “Synthesis and Evaluation of Quinazolines as Inhibitors of the Bacterial Cell Division Protein FtsZ” (ACS Med Chem Lett, 2015) one finds IC50, EC50 and inhibition data, which are given here for 45 compounds.

The source made the active and inactive calls. The calls are words filed in the database; no cut-off is given here. Bounds are passed on as bounds.

In the first test the target is T1, Cell division protein FtsZ (Escherichia coli K-12, UniProt P0A9A6).
T1 sequence (P0A9A6 whole entry): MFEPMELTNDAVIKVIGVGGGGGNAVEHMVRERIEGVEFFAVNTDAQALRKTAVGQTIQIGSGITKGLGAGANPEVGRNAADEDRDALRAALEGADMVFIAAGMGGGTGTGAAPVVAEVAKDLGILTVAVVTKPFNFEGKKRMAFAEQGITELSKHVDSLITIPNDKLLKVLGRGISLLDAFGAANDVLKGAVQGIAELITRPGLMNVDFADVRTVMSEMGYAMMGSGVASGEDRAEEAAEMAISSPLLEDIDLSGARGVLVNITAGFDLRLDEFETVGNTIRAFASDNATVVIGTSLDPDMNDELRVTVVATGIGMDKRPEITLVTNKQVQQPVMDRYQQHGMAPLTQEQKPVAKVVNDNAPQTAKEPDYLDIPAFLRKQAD
Briefly: Inhibition of Escherichia coli FtsZ GTPase activity after 5 mins by enzyme-coupled inhibition assay.
`COCCNc1nc(/C=C/c2ccc(Cl)cc2)nc2ccc(C)cc12` gave an IC50 of more than 128 µM.

`CN(C)CCNc1nc(/C=C/c2ccc(I)cc2)nc2cc3ccccc3cc12` had an IC50 of 24 µM.

Compound `CN(C)CCNc1nc(/C=C/c2ccc(Cl)cc2)nc2ccc(-c3ccncc3)cc12` registered an IC50 of 30 µM.

`COc1cc2nc(/C=C/c3ccc(Cl)cc3)nc(NCCN(C)C)c2cc1OC` registered an IC50 of 100 µM.

Turning to `Cc1cccc2nc(/C=C/c3ccc(Cl)cc3)nc(NCCN(C)C)c12`, the IC50 was more than 128 µM.

Compound `COCCNc1nc(/C=C/c2ccc(Cl)cc2)nc2cc3ccccc3cc12` returned an IC50 of more than 128 µM.

In turn, `CN(C)CCOc1nc(/C=C/c2ccc(Cl)cc2)nc2cc3ccccc3cc12` showed an IC50 of 26 µM.

The compound `Cc1ccc2nc(C(=O)NCc3ccc(Cl)cc3)nc(NCCN(C)C)c2c1` returned an IC50 of more than 128 µM.

Turning to `COCCCNc1nc(/C=C/c2ccc(Cl)cc2)nc2cc3ccccc3cc12`, the 50% inhibitory concentration (IC50) is more than 128 µM.

`CN(C)CCNc1nc(/C=C/c2ccc(Cl)cc2)nc2ccc(-c3cccs3)cc12` had an IC50 of more than 128 µM.

Compound `C[N+](C)(C)CCNc1nc(/C=C/c2ccc(Cl)cc2)nc2cc3ccccc3cc12` returned an IC50 of 52 µM.

`CC(C)(C)OC(=O)NCCNc1nc(/C=C/c2ccc(Cl)cc2)nc2cc3ccccc3cc12`: the IC50 was more than 128 µM.

On to `CN(C)CCNc1nc(/C=C/c2ccc(Cl)cc2)nc2ccc(I)cc12`, for which half-maximal inhibition (IC50) was put at 95 µM.

`CN(C)CCNc1nc(/C=C/c2ccc(Cl)cc2)nc2ccc(-c3ccccc3)cc12` registered a half-maximal inhibitory concentration (IC50) of 28 µM.

As to `CN(C)CCCNc1nc(/C=C/c2ccc(Cl)cc2)nc2cc3ccccc3cc12`, 65 µM corresponded to half-maximal inhibition (IC50).

Take `Cc1ccc2nc(/C=C/c3ccc(Cl)cc3)nc(NCCN(C)C)c2c1`: the IC50 was 24 µM.

In turn, `NCCNc1nc(/C=C/c2ccc(Cl)cc2)nc2cc3ccccc3cc12` gave a concentration for half-maximal inhibition (IC50) of 9 µM.

On to `CN(C)CCNc1nc(/C=C/c2ccc(Cl)cc2)nc2cc(C(F)(F)F)ccc12`, for which the IC50 was more than 128 µM.

For `CC(C)(C)OC(=O)CNc1nc(/C=C/c2ccc(Cl)cc2)nc2cc3ccccc3cc12`, the IC50 was more than 128 µM.

`CN(C)CCNc1nc(/C=C/c2ccc(Cl)cc2)nc2ccccc12`: the IC50 was more than 128 µM.

The compound `Cc1ccc2nc(/C=C/c3ccc(Cl)cc3)nc(NCCN)c2c1` registered an IC50 of 27 µM.

Take `CN(C)CCNc1nc(/C=C/c2ccc(Cl)cc2)nc2ccc(-c3ccc4ccccc4c3)cc12`: the half-maximal inhibitory concentration (IC50) is 58 µM.

Take `CN(C)CCNc1nc(/C=C/c2ccc(Cl)cc2)nc2ccc(C(=O)c3ccccc3)cc12`: the IC50 amounted to 85 µM.

As for `CN(C)CCNc1nc(/C=C/c2ccc(N=[N+]=[N-])cc2)nc2cc3ccccc3cc12`, the IC50 was found to be 14 µM.

For the compound `CC(=O)NCCNc1nc(/C=C/c2ccc(Cl)cc2)nc2cc3ccccc3cc12`, the IC50 is more than 128 µM.

In turn, `Cc1ccc2nc(/C=C/c3ccc(Cl)cc3)nc(NCCNC(=O)OC(C)(C)C)c2c1` came in with a concentration for half-maximal inhibition (IC50) of more than 128 µM.

`Cc1ccc2nc(C(=O)Nc3ccc(Cl)cc3)nc(NCCN)c2c1`: the IC50 is more than 128 µM.

`CN(C)CCNc1nc(/C=C/c2ccc(Cl)cc2)nc2ccc(Br)cc12` displayed an IC50 of 30 µM.

Regarding `CN(C)CCNc1nc(/C=C/c2ccc(Cl)cc2)nc2ccc(C3=CCCCC3)cc12`, half-maximal inhibition (IC50) required 49 µM.

As for `CSCCNc1nc(/C=C/c2ccc(Cl)cc2)nc2cc3ccccc3cc12`, the IC50 was more than 128 µM.

In another test the target is T2, Cell division protein FtsZ (Bacillus subtilis (strain 168), UniProt P17865).
T2 sequence (P17865 whole entry): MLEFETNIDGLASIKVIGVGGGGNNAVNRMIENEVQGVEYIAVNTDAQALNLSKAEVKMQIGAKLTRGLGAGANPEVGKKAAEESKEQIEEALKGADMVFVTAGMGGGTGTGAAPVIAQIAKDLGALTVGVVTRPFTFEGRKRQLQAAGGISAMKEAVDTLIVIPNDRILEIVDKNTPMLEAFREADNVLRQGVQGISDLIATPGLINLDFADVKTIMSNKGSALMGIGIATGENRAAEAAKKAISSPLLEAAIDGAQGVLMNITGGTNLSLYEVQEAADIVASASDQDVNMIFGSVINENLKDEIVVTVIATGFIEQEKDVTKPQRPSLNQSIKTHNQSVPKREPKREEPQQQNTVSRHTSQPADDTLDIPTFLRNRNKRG
Put plainly: Inhibition of Bacillus subtilis FtsZ GTPase activity after 5 mins by enzyme-coupled inhibition assay.
Compound `Cc1ccc2nc(/C=C/c3ccc(C(F)(F)F)cc3)nc(NCCN(C)C)c2c1` returned a concentration for half-maximal inhibition (IC50) of more than 128 µM.

For the compound `Cc1ccc2nc(-c3ccc4ccccc4c3)nc(NCCN(C)C)c2c1`, the half-inhibitory concentration (IC50) is more than 128 µM.

On to `Cc1ccc2nc(-c3ccc(Cl)cc3)nc(NCCN(C)C)c2c1`, for which the half-inhibitory concentration (IC50) is more than 128 µM.

Compound `Cc1ccc2nc(NCc3ccccc3)nc(NCCN(C)C)c2c1` showed an IC50 of more than 128 µM.

With `Cc1ccc2nc(/C=C/c3ccc(C(C)(C)C)cc3)nc(NCCN(C)C)c2c1`, the 50% inhibitory concentration (IC50) is more than 128 µM.

Compound `Cc1ccc2nc(-c3cccs3)nc(NCCN(C)C)c2c1` returned a 50% inhibitory concentration (IC50) of more than 128 µM.

Regarding `Cc1ccc2nc(N)nc(NCCN(C)C)c2c1`, the half-inhibitory concentration (IC50) is more than 128 µM.

In turn, `Cc1ccc2nc(NCc3ccc(Cl)cc3)nc(NCCN(C)C)c2c1` came in with an IC50 of more than 128 µM.

As for `Cc1ccc2nc(/C=C/c3ccc(I)cc3)nc(NCCN(C)C)c2c1`, the half-maximal inhibitory concentration (IC50) was more than 128 µM.

Regarding `Cc1ccc2nc(/C=C/c3ccc(Br)cc3)nc(NCCN(C)C)c2c1`, the concentration for half-maximal inhibition (IC50) was more than 128 µM.

Regarding `COc1ccc(-c2nc(NCCN(C)C)c3cc(C)ccc3n2)cc1`, the IC50 is more than 128 µM.

`Cc1ccc2nc(-c3cc4ccccc4o3)nc(NCCN(C)C)c2c1` had an IC50 of more than 128 µM.

For the next test, the target named is T3, Cell division protein FtsZ (Staphylococcus aureus, UniProt P0A031).
T3 sequence (P0A031 whole entry): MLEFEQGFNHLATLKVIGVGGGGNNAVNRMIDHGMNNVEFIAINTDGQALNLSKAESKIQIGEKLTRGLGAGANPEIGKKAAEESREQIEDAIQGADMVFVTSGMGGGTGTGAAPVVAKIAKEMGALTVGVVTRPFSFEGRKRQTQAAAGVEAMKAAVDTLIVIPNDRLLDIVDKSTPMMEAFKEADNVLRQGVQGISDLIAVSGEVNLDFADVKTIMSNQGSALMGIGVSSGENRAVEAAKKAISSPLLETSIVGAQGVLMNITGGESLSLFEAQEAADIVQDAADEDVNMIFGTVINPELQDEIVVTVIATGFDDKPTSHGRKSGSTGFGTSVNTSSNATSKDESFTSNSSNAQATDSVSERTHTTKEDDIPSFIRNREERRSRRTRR
Put plainly: Activation of Staphylococcus aureus FtsZ GTPase activity.
In turn, `NC(=O)c1c(F)ccc(OCc2nc3cc(Cl)cnc3s2)c1F` displayed a concentration giving a half-maximal response (EC50) of 4 µM.

Target in another test: not listed separately
Briefly: Inhibition of bacterial FtsZ GTPase activity (unknown origin).
In turn, `CCN(CC)CCNc1nc(/C=C/c2ccc(Cl)cc2)nc2cc3ccccc3cc12` had an IC50 of 24 µM.

On to `CN(C)CCNc1nc(/C=C/c2ccc(Cl)cc2)nc2cc3ccccc3cc12`, for which the IC50 was 12 µM.

The target of the next test is T4, Cell division protein FtsZ (Escherichia coli K-12) (UniProt P0A9A6).
T4 sequence (whole entry): T1 sequence (P0A9A6 whole entry)
Put plainly: Competitive inhibition of Escherichia coli FtsZ GTPase activity after 5 mins by enzyme-coupled inhibition assay in presence of 10 to 1250 uM GTP.
`CCN(CC)CCNc1nc(/C=C/c2ccc(Cl)cc2)nc2cc3ccccc3cc12`: the inhibition entry is “inactive”.

What is called IC50 is the concentration that inhibits the measured activity by half. A word on the EC50: it is the concentration giving half of the maximal effect. A lower EC50 goes with greater potency.
